# Results reported in publication PMC11581908 (Nature chemical biology, 2024).
# How the values were obtained:
# FBXO22 = target: T1, FBXO22 (Homo sapiens, UniProt Q8NEZ5); assay: cysteine-directed ABPP in cells; format: cell-based
# T1 sequence (Q8NEZ5 1-403): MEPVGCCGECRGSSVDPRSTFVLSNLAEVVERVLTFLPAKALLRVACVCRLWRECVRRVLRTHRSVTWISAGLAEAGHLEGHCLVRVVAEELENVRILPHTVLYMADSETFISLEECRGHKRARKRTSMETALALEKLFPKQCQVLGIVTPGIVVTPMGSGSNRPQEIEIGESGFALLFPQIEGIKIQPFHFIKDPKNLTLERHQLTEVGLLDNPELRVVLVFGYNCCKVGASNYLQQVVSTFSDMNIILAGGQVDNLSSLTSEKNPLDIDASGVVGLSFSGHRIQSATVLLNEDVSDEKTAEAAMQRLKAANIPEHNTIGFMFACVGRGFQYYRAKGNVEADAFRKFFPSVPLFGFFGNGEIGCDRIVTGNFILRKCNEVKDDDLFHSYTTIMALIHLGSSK
# FKBP12 = FKBP12 (Homo sapiens, UniProt P62942); format: cell-based
# Chain of FKBP12 (P62942 2-108): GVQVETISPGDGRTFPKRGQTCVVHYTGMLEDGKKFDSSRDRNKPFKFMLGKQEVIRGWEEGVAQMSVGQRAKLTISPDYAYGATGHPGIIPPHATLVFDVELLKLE
smiles,measurement,setting,value
"CCC(C)(C)C(=O)C(=O)N1CCCC[C@H]1C(=O)O[C@H](CCc1ccc(OC)c(OC)c1)c1cccc(OCC(=O)NCCCOCCOCCOCCCN(C(=O)CCl)C(C(=O)NCc2ccccc2)c2nc3ccccc3s2)c1 (some centres unmarked) [compound 1, 22-SLF]",% of C228 blocked at 2 μM,FBXO22,~ 20 % of C228 blocked at 2 μM
same,EC50,FKBP12,1960 nM
